Test results reported in patent US20040184993A1, “Pharmaceutical aerosol composition containing HFA 227 and HFA 134a” (Chiesi Farmaceutici S.p.A., priority 1998, published 2004).
“And” between values parts separate entries of the source, which are not always exact repeats. Identical values can stand only once. Like-named read-outs stand apart in the source and are kept apart here.

Assays:
[1] = Aerodynamic particle size distribution of pMDI solution formulations by Andersen Cascade Impactor (MMAD, GSD, fine particle dose); format: physicochemical; conditions: for FPD3 < 4.7 μm*: ethanol 15%, normalized for 250 nominal dose
Procedure: The aerodynamic particle size distribution of each formulation was characterized using a Multistage Cascade Impactor according to the procedure described in the European Pharmacopoeia 2nd edition, 1995, part V.5.9.1. pages 15-17. In this specific case an Andersen Cascade Impactor (ACI) was used. Results represented were obtained from ten cumulative actuations of a formulation. Deposition of the drug on each ACI plate was determined by high pressure liquid chromatography. The mass median aerodynamic diameter (MMAD) and geometric standard deviation (GSD) were calculated from plots of the cumulative percentage undersize of drug collected on each ACI plate (probit scale), against the upper cut off diameter for each respective ACI plate (log10 scale). The fine particle dose of each formulation was determined from the mass of drug collected on Stages 3 through to Filter (<4.7 μm) divided by the number of actuations per experiment.

[2] = BDP as a solution in HFA 134a (formulations of EP 0553298), reported in literature; cited from earlier work
[3] = BDP 50 μg/shot, ethanol 13%, glycerol 1.3%, HFA 134a, chamber volume 25 μl, actuator orifice 0.25 mm
[4] = BDP 50 μg/shot, ethanol 13%, glycerol 1.3%, HFA 134a, chamber volume 25 μl, actuator orifice 0.30 mm
[5] = BDP 50 μg/shot, ethanol 13%, glycerol 1.3%, HFA 134a, chamber volume 50 μl, actuator orifice 0.30 mm
[6] = BDP 50 μg/shot, ethanol 13%, glycerol 1.3%, HFA 134a, chamber volume 100 μl, actuator orifice 0.30 mm
[7] = BDP 50 μg/shot, ethanol 13%, glycerol 1.3%, HFA 227, chamber volume 25 μl, actuator orifice 0.30 mm
[8] = BDP 50 μg/shot, ethanol 13%, glycerol 1.3%, HFA 227, chamber volume 50 μl, actuator orifice 0.30 mm
[9] = BDP 50 μg/shot, ethanol 13%, glycerol 1.3%, HFA 227, chamber volume 100 μl, actuator orifice 0.30 mm
[10] = BDP 250 μg/shot, ethanol 15% (w/w), glycerol 1.3% (w/w), actuator 0.30 mm, HFA 227/HFA 134a 0:100
[11] = BDP 250 μg/shot, ethanol 15% (w/w), glycerol 1.3% (w/w), actuator 0.30 mm, HFA 227/HFA 134a 25:75
[12] = BDP 250 μg/shot, ethanol 15% (w/w), glycerol 1.3% (w/w), actuator 0.30 mm, HFA 227/HFA 134a 50:50
[13] = BDP 250 μg/shot, ethanol 15% (w/w), glycerol 1.3% (w/w), actuator 0.30 mm, HFA 227/HFA 134a 75:25
[14] = BDP 250 μg/shot, ethanol 15% (w/w), glycerol 1.3% (w/w), actuator 0.30 mm, HFA 227/HFA 134a 100:0

CCC(=O)OCC(=O)[C@@]1(OC(=O)CC)[C@@H](C)C[C@H]2[C@@H]3CCC4=CC(=O)C=C[C@]4(C)[C@@]3(Cl)[C@@H](O)C[C@@]21C [BDP, beclomethasone 17,21 dipropionate]
FPD < 4.7 μm [1, 3]: 26.0 µg
GSD [1, 3]: 1.9
MMAD [1, 3]: 2.8 μm
Metered Dose [1, 3]: 55 µg
FPD < 4.7 μm [1, 4]: 19.2 µg
GSD [1, 4]: 2.0
MMAD [1, 4]: 2.6 μm
Metered Dose [1, 4]: 57 µg
FPD < 4.7 μm [1, 5]: 13.9 µg
GSD [1, 5]: 2.1
MMAD [1, 5]: 2.8 μm
Metered Dose [1, 5]: 49 µg
FPD < 4.7 μm [1, 6]: 11.7 µg
GSD [1, 6]: 2.2
MMAD [1, 6]: 2.7 μm
Metered Dose [1, 6]: 51 µg
FPD < 4.7 μm [1, 7]: 16.4 µg
GSD [1, 7]: 2.1
MMAD [1, 7]: 3.6 μm
Metered Dose [1, 7]: 58 µg
FPD < 4.7 μm [1, 8]: 13.1 µg
GSD [1, 8]: 2.2
MMAD [1, 8]: 3.5 μm
Metered Dose [1, 8]: 51 µg
FPD < 4.7 μm [1, 9]: 12.6 µg
GSD [1, 9]: 2.2
MMAD [1, 9]: 3.5 μm
Metered Dose [1, 9]: 49 µg
FPD [1, 10]: 27, 27%
MMAD [1, 10]: 2.8, 2.8 μm
FPD [1, 11]: 27% and 28%
MMAD [1, 11]: 3.3 μm and 3.2 μm
FPD [1, 12]: 25, 25%
MMAD [1, 12]: 3.4 μm and 3.7 μm
FPD [1, 13]: 25, 25%
MMAD [1, 13]: 3.7, 3.7 μm
FPD [1, 14]: 20% and 24%
MMAD [1, 14]: 4.2 μm and 3.9 μm and 3.8 μm
FPD3 < 4.7 μm* ([1]; BDP 250 μg/shot, glycerol 1.3%, actuator 0.30 mm, HFA 227/HFA 134a 0:100): 58 µg and 59 µg
FPD3 < 4.7 μm* ([1]; BDP 250 μg/shot, glycerol 1.3%, actuator 0.30 mm, HFA 227/HFA 134a 25:75): 60 µg and 62 µg
FPD3 < 4.7 μm* ([1]; BDP 250 μg/shot, glycerol 1.3%, actuator 0.30 mm, HFA 227/HFA 134a 50:50): 56, 56 μg
FPD3 < 4.7 μm* ([1]; BDP 250 μg/shot, glycerol 1.3%, actuator 0.30 mm, HFA 227/HFA 134a 75:25): 56 µg and 57 µg
FPD3 < 4.7 μm* ([1]; BDP 250 μg/shot, glycerol 1.3%, actuator 0.30 mm, HFA 227/HFA 134a 100:0): 47 µg and 45 µg and 50 µg
MMAD [2]: 1.1 μm
